Consider 35 molecules from patent US20240327354A1, “GRAM-NEGATIVE BACTERIA EFFLUX PUMP INHIBITORS” (INSTITUT NATIONAL DE LA SANTÉ ET DE LA RECHERCHE MÉDICALE, priority 2021, published 2024).

This test deals with E. coli BW25113. Put plainly: Assay 1: growth inhibition of E. coli by sub-inhibitory pyridomycin in combination with examples (resazurin reduction). It is filed as cell-based, Escherichia coli. The following applies: read-out: EC50 on E. coli with 8 μg/mL of pyridomycin, 8 μg/mL pyridomycin, 5 h, 37° C. An excerpt: Escherichia coli BW25113 (CGSC 7636) and its derivatives E. coli ΔtolC (JW5503-1, ΔtolC732::kan, CGSC 11430), E. coli ΔacrA (JW0452-3, ΔacrA748::kan, CGSC 11843) and E. coli ΔacrB (JW0451-2, ΔacrB747::kan, CGSC 8609) were obtained from E. coli Genetic Stock Center (CGSC, New Haven, Connecticut) and originated from the Keio Collection (Baba T et al, Mol Sys Biol, 2006). Klebsiella pneumoniae (LMG 2095/ATCC 13883) and K. pneumoniae (ATCC43816), Pseudomonas aeruginosa (PAO1), Acinetobacter baumannii (LMG 1025, ATCC 17978), were obtained from ATCC or BCCM/LMG Bacteria Collection. All bacteria were grown and tested in cation-adjusted Mueller-Hinton broth (CAMHB; BD Difco) at 37° C. For conservation, log phase bacteria were frozen (−80° C.) in CAMHB supplemented with 15% glycerol.
Briefly, E. coli BW25113 were diluted from frozen or growing stocks to an OD600 of 0.0004-0.001 in CAMHB. […] E. coli BW25113 viability was evaluated using the resazurin reduction assay, and measured by fluorescence (POLARstar Omega, BMG Labtech: Ex: 530 nm Em: 590 nm). EC50 were defined as the compound concentration that prevented 50% of resazurin turnover compared to the non-treated bacteria.
A general note: Resazurin is reduced to fluorescent resorufin, in cell work by metabolically active cells.

The structures appear in SMILES notation. Where a name gives a salt, the structure may show the parent alone.

With `Clc1cc2cc(N[C@H]3CCCNC3)ccc2nc1N1CCNCC1` (stereo in doubt) [Example 104, 3-chloro-2-piperazin-1-yl-N-(3-piperidyl)quinolin-6-amine;dihydrochloride], the EC50 was below 5 µM.
Next, `CN1CCN(c2ncc(C(F)(F)F)cc2Cl)CC1` [Example 1, 1-[3-chloro-5-(trifluoromethyl)-2-pyridyl]-4-methyl-piperazine]: 100 to 500 µM; `CN1CCN(c2ncc(C(F)(F)F)cc2Br)CC1` [Example 2, 1-[3-bromo-5-(trifluoromethyl)-2-pyridyl]-4-methyl-piperazine]: 5 to 100 µM.
Next, `COC(=O)c1cnc(N2CCN(C)CC2)c(Cl)c1` [Example 3, methyl 5-chloro-6-(4-methylpiperazin-1-yl)pyridine-3-carboxylate]: 5 to 100 µM; `CN1CCN(c2ncc(Br)cc2Cl)CC1` [Example 4, 1-(5-bromo-3-chloro-2-pyridyl)-4-methyl-piperazine]: 5 to 100 µM; `CN1CCN(c2ccc(C(F)(F)F)cc2Cl)CC1` [Example 5, 1-[2-chloro-4-(trifluoromethyl)phenyl]-4-methyl-piperazine]: 100 to 500 µM.
For `NC1CCN(c2ncc(C(F)(F)F)cc2Cl)CC1` [Example 7, 1-[3-chloro-5-(trifluoromethyl)-2-pyridyl]piperidin-4-amine], the EC50 was 100 to 500 µM.
Next, `Cc1cnc(N2CCN(C)CC2)c(Cl)c1` [Example 10, 1-(3-chloro-5-methyl-2-pyridyl)-4-methyl-piperazine]: 5 to 100 µM; `Cc1cnc(N2CCNCC2)c(Cl)c1` [Example 12, 1-(3-chloro-5-methyl-2-pyridyl)piperazine; hydrochloride]: 5 to 100 µM; `COc1cnc(N2CCNCC2)c(Cl)c1` [Example 13, 1-(3-chloro-5-methoxy-2-pyridyl)piperazine;hydrochloride]: 100 to 500 µM.
Regarding `COC(=O)c1cnc(N2CCNCC2)c(Cl)c1` [Example 18, methyl 5-chloro-6-piperazin-1-yl-pyridine-3-carboxylate; hydrochloride], the EC50 fell in the range of 5 to 100 µM.
Regarding `Clc1cc(Br)cnc1N1CCNCC1` [Example 19, 1-(5-bromo-3-chloro-2-pyridyl)piperazine;hydrochloride], the EC50 was in the range of 5 to 100 µM.
Next, `NCCc1ccc(OC(=O)c2cnc(N3CCNCC3)c(Cl)c2)cc1` [Example 28, [4-(2-aminoethyl)phenyl] 5-chloro-6-piperazin-1-yl-pyridine-3-carboxylate;dihydrochloride]: below 5 µM; `NCc1cccc(OC(=O)c2cnc(N3CCNCC3)c(Cl)c2)c1` [Example 29, [3-(aminomethyl)phenyl] 5-chloro-6-piperazin-1-yl-pyridine-3-carboxylate;dihydrochloride]: below 5 µM.
With `CCOC(=O)c1cnc(N2CCNCC2)c(Cl)c1` [Example 32, ethyl 5-chloro-6-piperazin-1-yl-pyridine-3-carboxylate; hydrochloride] the figure was 5 to 100 µM; with `NCCc1ccc(NC(=O)c2cnc(N3CCNCC3)c(Cl)c2)cc1` [Example 34, N-[4-(2-aminoethyl)phenyl]-5-chloro-6-piperazin-1-yl-pyridine-3-carboxamide;dihydrochloride], 5 to 100 µM.
Next, `CC(=O)Nc1cnc(N2CCNCC2)c(Cl)c1` [Example 35, N-(5-chloro-6-piperazin-1-yl-3-pyridyl)acetamide;hydrochloride]: 100 to 500 µM; `CS(=O)(=O)Nc1cnc(N2CCNCC2)c(Cl)c1` [Example 36, N-(5-chloro-6-piperazin-1-yl-3-pyridyl)methane sulfonamide;hydrochloride]: 100 to 500 µM.
As to `Clc1nc2ccccc2cc1N1CCNCC1` [Example 40, 2-chloro-3-piperazin-1-yl-quinoline;hydrochloride], the EC50 was in the range of 5 to 100 µM.
With `Cc1cc2nc(Cl)c(N3CCNCC3)nc2cc1C` [Example 47, 2-chloro-6,7-dimethyl-3-piperazin-1-yl-quinoxaline;hydrochloride] the figure was below 5 µM.
With `C[C@H]1CN(c2nc3ccccc3nc2Cl)CCN1` [Example 50, 2-chloro-3-[(3S)-3-methylpiperazin-1-yl]quinoxaline;hydrochloride] the figure was 5 to 100 µM; with `Clc1cc2cc(N3CCNCC3)ccc2nc1N1CCNCC1` [Example 56, 3-chloro-2,6-di(piperazin-1 yl)quinoline;dihydrochloride], below 5 µM; with `Clc1cc2cc(Br)ccc2nc1N1CCNCC1` [Example 60, 6-bromo-3-chloro-2-piperazin-1-yl-quinoline;hydrochloride], 5 to 100 µM.
On to `Clc1cc2cc(I)ccc2nc1N1CCNCC1` [Example 61, 3-chloro-6-iodo-2-piperazin-1-yl-quinoline;hydrochloride], for which the EC50 is below 5 µM.
With `NCCNc1ccc2nc(N3CCNCC3)c(Cl)cc2c1` [Example 62, N′-(3-chloro-2-piperazin-1-yl-6-quinolyl)ethane-1,2-diamine; dihydrochloride] the figure was below 5 µM.
Regarding `NCCCNc1ccc2nc(N3CCNCC3)c(Cl)cc2c1` [Example 63, N′-(3-chloro-2-piperazin-1-yl-6-quinolyl)propane-1,3-diamine; dihydrochloride], the EC50 was below 5 µM.
Next, `O=C1CNCCN1c1ccc2nc(N3CCNCC3)c(Cl)cc2c1` [Example 64, 1-(3-chloro-2-piperazin-1-yl-6-quinolyl)piperazin-2-one;dihydrochloride]: 5 to 100 µM.
Next, `NCC(=O)Nc1ccc2nc(N3CCNCC3)c(Cl)cc2c1` [Example 65, 2-amino-N-(3-chloro-2-piperazin-1-yl-6-quinolyl)acetamide;dihydrochloride]: below 5 µM; `Clc1cc2cc(N3CCCCC3)ccc2nc1N1CCNCC1` [Example 67, 3-chloro-2-piperazin-1-yl-6-(1-piperidyl)quinoline;hydrochloride]: 5 to 100 µM.
Next, `NCC1CCCN(c2ccc3nc(N4CCNCC4)c(Cl)cc3c2)C1` (centres unmarked) [Example 68, [1-(3-chloro-2-piperazin-1-yl-6-quinolyl)-3-piperidyl]methanamine;dihydrochloride]: below 5 µM; `Clc1cc2ncccc2nc1N1CCNCC1` [Example 69, 3-chloro-2-piperazin-1-yl-1,5-naphthyridine; hydrochloride]: 5 to 100 µM.
As to `COc1ccc2nc(Cl)c(N3CCNCC3)nc2c1` [Example 70, 2-chloro-6-methoxy-3-piperazin-1-yl-quinoxaline; hydrochloride], the EC50 is 5 to 100 µM.
For `NCCc1ccc(C(=O)Nc2cnc(N3CCNCC3)c(Cl)c2)cc1` [Example 71, 4-(2-aminoethyl)-N-(5-chloro-6-piperazin-1-yl-3-pyridyl)benzamide;dihydrochloride], the EC50 lay in the range of 5 to 100 µM.
With `Cc1nnc(-c2cnc(N3CCNCC3)c(Cl)c2)o1` [Example 72, 2-(5-chloro-6-piperazin-1-yl-3-pyridyl)-5-methyl-1,3,4-oxadiazole] the figure was 5 to 100 µM; with `Cc1nc(-c2cnc(N3CCNCC3)c(Cl)c2)no1` [Example 73, 3-(5-chloro-6-piperazin-1-yl-3-pyridyl)-5-methyl-1,2,4-oxadiazole;hydrochloride], 5 to 100 µM.
